Experimental data published in US8198456B2, “Dihydropyridine derivatives as useful as protein kinase inhibitors” (Bayer Intellectual Property GmbH, priority 2006, dated 2012).

The molecules below were run against T1, recombinant human c-MET kinase enzyme domain (Homo sapiens, UniProt P08581) (assay: c-MET receptor tyrosine kinase Homogeneous Time Resolved Fluorescence assay (HTRF)). Details: Biological Example 1 and/or Biological Example 2.
T1 construct: Recombinant c-Met kinase domain (amino acids 960-1390); His (N); made in house; host or cells: baculovirus expression system (insect cells; SF21 is named only for the alternative format)
T1 sequence (P08581 960-1390): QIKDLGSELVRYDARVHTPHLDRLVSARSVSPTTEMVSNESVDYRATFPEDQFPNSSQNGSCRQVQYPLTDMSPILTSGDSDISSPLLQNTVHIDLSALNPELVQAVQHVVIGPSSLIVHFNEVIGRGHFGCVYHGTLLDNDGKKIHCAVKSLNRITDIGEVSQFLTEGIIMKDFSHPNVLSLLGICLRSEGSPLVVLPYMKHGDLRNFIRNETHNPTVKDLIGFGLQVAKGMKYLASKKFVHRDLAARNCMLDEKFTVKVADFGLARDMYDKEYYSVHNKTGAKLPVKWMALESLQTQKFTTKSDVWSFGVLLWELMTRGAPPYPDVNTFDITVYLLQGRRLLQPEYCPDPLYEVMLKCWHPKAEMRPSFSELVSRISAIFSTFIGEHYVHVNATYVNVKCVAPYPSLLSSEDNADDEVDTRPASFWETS
Assay type: biochemical
Excerpt: Recombinant c-Met kinase domain (amino acids 960-1390) was produced in a baculovirus expression vector as an N-terminal His-tagged fusion protein and purified on a NiNTA column. The resulting purified enzyme was then used in the following c-Met Homogeneous Time Resolved Fluorescence assay (HTRF) to find compounds of the invention and to perform initial activity determinations. Specifically, this assay measures the ability of compounds of the invention to inhibit the phosphorylation of a randomly synthesized, biotinylated heterocopolymeric polypeptide composed of glutamic acid and tyrosine, with an average length of 100 aa. The assay analyzes the amount of phosphorylated polypeptide produced.
The enzymatic phosphorylation of the biotinylated heterocopolymeric polypeptide was performed in a black 384-well plate at ambient temperature in a reaction mixture containing 50 mM HEPES (pH 7.4), 5 mM MgCl2, 5 mM MnCl2, 0.01% Tween-20, and 2 mM DTT, […] recombinant human c-MET kinase enzyme domain, 37 nM biotinylated heterocopolymeric polypeptide composed of glutamic acid and tyrosine, 20 μM ATP, 1% DMSO in the absence or presence of a compound of the invention. The reaction was stopped after a 20-minute incubation by the addition of 80 mM EDTA.
The formation of phosphorylated heterocopolymeric, biotinylated polypeptide was quantified with the HTRF assay technology using an anti-phosphotyrosine antibody, PT66, conjugated to europium cryptate, mixed with a streptavidin-XL665 conjugate. Reduced or inhibited phosphorylation of the heterocopolymeric, biotinylated polypeptide prevents the anti-phosphotyrosine antibody from binding to the peptide, resulting in a loss of energy transfer to the streptavidin-XL665 conjugate.
Following the 384-well enzymatic phosphorylation reaction outlined above, the detection of phosphorylated heterocopolymeric, biotinylated polypeptide was performed by dilution of the stopped reaction mixture 2-fold with 50 mM HEPES (pH 7.0), 500 mM KF, 0.1% BSA, streptavidin-XL665 (20 nM), and anti-phosphotyrosine antibody PT66-crypate conjugate (6.4 ng/well) and incubation for four hours at ambient temperature. Plates were read in an Envision plate reader (PerkinElmer Life and Analytical Sciences, Inc., MA) simultaneously at 620 nm and 665 nm to obtain signal ratios of 665 nm/620 nm. Results of energy transfer were expressed as signal ratios of 665 nm/620 nm. Negative controls were samples without recombinant c-MET or c-MET treated with 100 mM EDTA.
For determination of IC50 values of particular compounds of the invention, eight serially diluted compound concentrations (at 1:3.16 dilution) were used in the assay. Controls without a compound of the invention or with a reference compound were run in parallel in the same assay plate.
`CC1=C(C#N)C(c2ccc3[nH]nc(CN4CCN(CCO)CC4)c3c2)C(C#N)=C(C)N1` [compound 166, 1,4-dihydro-4-[3-[[4-(2-hydroxyethyl)-1-piperazinyl]methyl]-1H-indazol-5-yl]-2,6-dimethyl-3,5-pyridinedicarbonitrile] was tested, and the IC50 was < 100 nM. In the case of `CC1=C(C#N)C(c2ccc3[nH]nc(N)c3c2)C(C#N)=C(C)N1` [compound 82, 4-(3-amino-1H-indazol-5-yl)-1,4-dihydro-2,6-dimethyl-3,5-pyridinedicarbonitrile], the IC50 is reported as < 100 nM. For `CC1=C(C#N)C(c2ccc3[nH]nc(C)c3c2)C(C#N)=C(C)N1C1CC1` [compound 301, 1-cyclopropyl-1,4-dihydro-2,6-dimethyl-4-(3-methyl-1H-indazol-5-yl)-3,5-pyridinedicarbonitrile], the IC50 was < 100 nM. `CC1=C(C#N)C(c2ccc3[nH]nc(-c4ccc(N5CCN(C)CC5)nc4)c3c2)C(C#N)=C(C)N1` [compound 137, 1,4-dihydro-2,6-dimethyl-4-[3-[6-(4-methyl-1-piperazinyl)-3-pyridinyl]-1H-indazol-5-yl]-3,5-pyridinedicarbonitrile] was tested, and the IC50 was < 100 nM. For `CC1=C(C#N)C(c2cccc(NC(=O)c3cccnc3)c2)C(C#N)=C(C)N1` [compound 38, N-[3-(3,5-dicyano-1,4-dihydro-2,6-dimethyl-4-pyridinyl)phenyl]-3-pyridinecarboxamide], the IC50 was 500 to 2500 nM. In the case of `CC1=C(C#N)C(c2cccc(NC(=O)c3ccncc3)c2)C(C#N)=C(C)N1` [compound 57, N-[3-(3,5-dicyano-1,4-dihydro-2,6-dimethyl-4-pyridinyl)phenyl]-4-pyridinecarboxamide], the IC50 is reported as 500 to 2500 nM. `CC1=C(C#N)C(c2cnc3[nH]ncc3c2)C(C#N)=C(C)N1` [compound 204, 1,4-dihydro-2,6-dimethyl-4-(1H-pyrazolo[3,4-b]pyridin-5-yl)-3,5-pyridinedicarbonitrile] was tested, and the IC50 was < 100 nM. `CC1=C(C#N)C(c2ccc3c(c2)c(N)nn3C(=O)OC(C)(C)C)C(C#N)=C(C)N1` [compound 92, 3-amino-5-(3,5-dicyano-1,4-dihydro-2,6-dimethyl-4-pyridinyl)-1H-indazole-1-carboxylic acid tert-butyl ester] was tested, and the IC50 was 100 to 500 nM. For `COC(=O)c1cccc(C2C(C#N)=C(C)NC(C3CCCN(C(N)=O)C3)=C2C#N)c1` (stereo not drawn) [compound 230, 3-[2-[1-(aminocarbonyl)-3-piperidinyl]-3,5-dicyano-1,4-dihydro-6-methyl-4-pyridinyl]-benzoic acid, methyl ester], the IC50 was 100 to 500 nM. `CC1=C(C#N)C(c2ccc3[nH]nc(NCc4cccnc4)c3c2)C(C#N)=C(C)N1` [compound 120, 1,4-dihydro-2,6-dimethyl-4-[3-[(3-pyridinylmethyl)amino]-1H-indazol-5-yl]-3,5-pyridinedicarbonitrile] was tested, and the IC50 was < 100 nM. With `C#CCN1C(C)=C(C#N)C(c2ccc3[nH]ncc3c2)C(C#N)=C1C` [compound 302, 1,4-dihydro-4-(1H-indazol-5-yl)-2,6-dimethyl-1-(2-propynyl)-3,5-pyridinedicarbonitrile] the IC50 was < 100 nM. With `CNC(=O)c1cccc(C2C(C#N)=C(C)NC(C)=C2C#N)n1` [compound 189, 3′,5′-dicyano-1′,4′-dihydro-N,2′,6′-trimethyl-[2,4′-bipyridine]-6-carboxamide] the IC50 was 500 to 2500 nM. For `CC1=C(C#N)C(c2ccc3[nH]nc(NCc4ccc(C(=O)N5CCC(O)C5)cc4)c3c2)C(C#N)=C(C)N1` (stereo not drawn) [compound 168, 1,4-dihydro-4-[3-[[[4-[(3-hydroxy-1-pyrrolidinyl)carbonyl]phenyl]methyl]amino]-1H-indazol-5-yl]-2,6-dimethyl-3,5-pyridinedicarbonitrile], the IC50 was < 100 nM. In the case of `CC1=C(C#N)C(c2ccc3[nH]nc(N)c3c2)C(C#N)=C(c2ccc(Cl)cc2)N1` (stereo not drawn) [compound 264, 4-(3-amino-1H-indazol-5-yl)-2-(4-chlorophenyl)-1,4-dihydro-6-methyl-3,5-pyridinedicarbonitrile], the IC50 is reported as < 100 nM. For `COC(=O)c1cccc(C2C(C#N)=C(C)NC(c3cccc([N+](=O)[O-])c3)=C2C#N)c1` (stereo not drawn) [compound 232, 3-[3,5-dicyano-1,4-dihydro-2-methyl-6-(3-nitrophenyl)-4-pyridinyl]-benzoic acid, methyl ester], the IC50 was 500 to 2500 nM. For `CC1=C(C#N)C(c2ccc3[nH]nc(NCc4ccccc4)c3c2)C(C#N)=C(C)N1` [compound 105, 1,4-dihydro-2,6-dimethyl-4-[3-[(phenylmethyl)amino]-1H-indazol-5-yl]-3,5-pyridinedicarbonitrile], the IC50 was < 100 nM. In the case of `CC1=C(C#N)C(c2ccc3[nH]nc(-c4ccc(N5CCN(CCO)CC5)cc4)c3c2)C(C#N)=C(C)N1` [compound 152, 1,4-dihydro-4-[3-[4-[4-(2-hydroxyethyl)-1-piperazinyl]phenyl]-1H-indazol-5-yl]-2,6-dimethyl-3,5-pyridinedicarbonitrile], the IC50 is reported as < 100 nM. For `CC1=C(C#N)C(c2ccc3[nH]nc(-c4ccc(N5CCN(C)CC5)cc4)c3c2)C(C#N)=C(C)N1` [compound 140, 1,4-dihydro-2,6-dimethyl-4-[3-[4-(4-methyl-1-piperazinyl)phenyl]-1H-indazol-5-yl]-3,5-pyridinedicarbonitrile], the IC50 was < 100 nM. For `CC1=C(C#N)C(c2ccc3[nH]ncc3c2)C(C#N)=C(c2ccc(CO)cc2)N1` (stereo not drawn) [compound 258, 1,4-dihydro-2-[4-(hydroxymethyl)phenyl]-4-(1H-indazol-5-yl)-6-methyl-3,5-pyridinedicarbonitrile], the IC50 was < 100 nM. For `CC1=C(C#N)C(c2ccc3[nH]nc(/C=N/O)c3c2)C(C#N)=C(C)N1` [compound 149, 1,4-dihydro-4-[3-[(E)-(hydroxyimino)methyl]-1H-indazol-5-yl]-2,6-dimethyl-3,5-pyridinedicarbonitrile], the IC50 was < 100 nM. With `CC1=C(C#N)C(c2ccc3[nH]nc(-c4cccs4)c3c2)C(C#N)=C(C)N1` [compound 178, 1,4-dihydro-2,6-dimethyl-4-[3-(2-thienyl)-1H-indazol-5-yl]-3,5-pyridinedicarbonitrile] the IC50 was < 100 nM. With `CC1=C(C#N)C(c2ccc3[nH]nc(NCCO)c3c2)C(C#N)=C(C)N1` [compound 118, 1,4-dihydro-4-[3-[(2-hydroxyethyl)amino]-1H-indazol-5-yl]-2,6-dimethyl-3,5-pyridinedicarbonitrile] the IC50 was < 100 nM. With `CC1=C(C#N)C(c2ccc3[nH]nc(N)c3c2)C(C#N)=C(c2ccccc2)N1` (stereo not drawn) [compound 259, 4-(3-amino-1H-indazol-5-yl)-1,4-dihydro-2-methyl-6-phenyl-3,5-pyridinedicarbonitrile] the IC50 was < 100 nM. `CCC1=C(C#N)C(c2ccc3[nH]ncc3c2)C(C#N)=C(CC)N1` [compound 269, 2,6-diethyl-1,4-dihydro-4-(1H-indazol-5-yl)-3,5-pyridinedicarbonitrile] was tested, and the IC50 was < 100 nM. In the case of `CC1=C(C#N)C(c2ccc3[nH]ncc3c2)C(C#N)=C(c2cccc(N)c2)N1` (stereo not drawn) [compound 252, 2-(3-aminophenyl)-1,4-dihydro-4-(1H-indazol-5-yl)-6-methyl-3,5-pyridinedicarbonitrile], the IC50 is reported as < 100 nM. `COC(=O)c1ccc(C2=C(C#N)C(c3ccc4[nH]ncc4c3)C(C#N)=C(C)N2)cc1` (stereo not drawn) [compound 257, 4-[3,5-dicyano-1,4-dihydro-4-(1H-indazol-5-yl)-6-methyl-2-pyridinyl]-benzoic acid methyl ester] was tested, and the IC50 was < 100 nM. Molecule `CC1=C(C#N)C(c2ccc3[nH]nc(NCc4ccc([N+](=O)[O-])cc4)c3c2)C(C#N)=C(C)N1` [compound 127, 1,4-dihydro-2,6-dimethyl-4-[3-[[(4-nitrophenyl)methyl]amino]-1H-indazol-5-yl]-3,5-pyridinedicarbonitrile] has an IC50 of 500 to 2500 nM. For `CC1=C(C#N)C(c2ccc3c(c2)c(NCCO)nn3C(=O)OC(C)(C)C)C(C#N)=C(C)N1` [compound 119, 5-(3,5-dicyano-1,4-dihydro-2,6-dimethyl-4-pyridinyl)-3-[(2-hydroxyethyl)-amino]-1H-indazole-1-carboxylic acid, 1,1-dimethylethyl ester], the IC50 was < 100 nM. `CC1=C(C#N)C(c2ccc3[nH]nc(Cl)c3c2)C(C#N)=C(C)N1CCO` [compound 297, 4-(3-chloro-1H-indazol-5-yl)-1,4-dihydro-1-(2-hydroxyethyl)-2,6-dimethyl-3,5-pyridinedicarbonitrile] was tested, and the IC50 was < 100 nM. For `CC1=C(C#N)C(c2ccc3[nH]nc(NCc4cnc[nH]4)c3c2)C(C#N)=C(C)N1` [compound 150, 1,4-dihydro-4-[3-[(1H-imidazol-4-ylmethyl)amino]-1H-indazol-5-yl]-2,6-dimethyl-3,5-pyridinedicarbonitrile], the IC50 was < 100 nM.
